Holding throughout (assay): NCI anticancer screen, dose series, 48 h
Experiment [1] relates to A498 renal.
The subject of experiment [2] is OVCAR-3 ovarian.
The subject of experiment [3] is MDA-MB-435.
The test system of experiment [4] is BT-549 breast.
The subject of experiment [5] is ACHN renal.
The test system of experiment [6] is A549 NSCLC.
Experiment [7] has as its system SF-268 CNS.
For experiment [8], the system named is COLO 205 colon.
The test system of experiment [9] is MOLT-4 leukemia.
Experiment [10] has as its system MCF7 breast.

SMILES strings stand for the structures.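 Interpolation was linear, between the two tested concentrations surrounding the appropriate level; five concentrations were tested over 48 hours in 96-well plates. At the GI50, growth is halved. TGI marks complete inhibition of growth.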

For the molecule `O=C(O)C1C2CC3C(OC(=O)C31)C2Br` (stereo not given), the TGI in experiment [1], in experiment [2], in experiment [3], in experiment [4], in experiment [5] and in experiment [6] was more than 100 µM throughout. The TGI is more than 100 µM in experiment [7], more than 100 µM in experiment [8], more than 58.1 µM in experiment [9] and more than 100 µM in [10].
On to `CCC(Sc1nnc2c3ccccc3n(CC)c2n1)C(=O)Nc1ccccc1OC` (stereo not given), for which the GI50 in experiment [1] is 2.2 µM; in [2], 8.49 µM; in experiment [3] it was more than 100 µM; in experiment [4] it was more than 100 µM; in experiment [5], 83.8 µM; in experiment [6], 6.4 µM. The GI50 in [7] was more than 100 µM; in experiment [8], more than 100 µM; in [9], 35 µM; in experiment [10], more than 89.9 µM. Moreover, the TGI is 6.77 µM in [1]; more than 79.4 µM in [2]; more than 100 µM in [3]; more than 100 µM in experiment [4]; more than 100 µM in experiment [5]; more than 100 µM in experiment [6]. Also, the TGI in [7], in experiment [8], in experiment [9] and in experiment [10] was more than 100 µM each time.
For `CCCCC(=O)N/N=C/c1cc(I)cc(I)c1O`, the GI50 in experiment [1] is 13.8 µM; in experiment [2], 2.9 µM; in experiment [3] it was 5.54 µM; in experiment [4], 4.48 µM; in experiment [5], 2.4 µM; in experiment [6], 3.63 µM. Besides, the GI50 in experiment [7] is 2.15 µM; in [8], 3.59 µM; in experiment [9] it was 2.39 µM; in [10] it was 2.72 µM. In addition, the TGI is 44.2 µM in experiment [1]; 16.9 µM in experiment [2]; 23.9 µM in experiment [3]; 29.5 µM in [4]; 13.4 µM in [5]; 22.4 µM in [6]. Moreover, the TGI was 21.6 µM in experiment [7], 26.9 µM in experiment [8], 13 µM in experiment [9] and 14.6 µM in experiment [10].
For `O=C(Nc1ccc(Br)cc1)Nc1n[nH]c2ccccc12`, the GI50 was more than 100 µM in experiment [1]; more than 100 µM in experiment [2]; more than 100 µM in experiment [3]; more than 100 µM in experiment [4]; 23.3 µM in experiment [5]; more than 62.7 µM in experiment [6]. In addition, the GI50 in [7] was more than 46 µM; in experiment [8], more than 100 µM; in [9], 8.98 µM; in experiment [10], 42.1 µM. Further, the TGI in experiment [1], in experiment [2], in experiment [3], in experiment [4], in experiment [5] and in [6] was more than 100 µM throughout. For the same molecule, the TGI in experiment [7], in experiment [8], in experiment [9] and in experiment [10] was more than 100 µM each time.
For `COc1cccc(/C=N\Nc2ccc([N+](=O)[O-])cn2)c1O`, the GI50 in [1] is 2.42 µM; in [2], 2.38 µM; in [3], 5.23 µM; in experiment [4], 4.47 µM; in experiment [5], 2.33 µM; in [6], 4.26 µM. Also, the GI50 in experiment [7] was 2.58 µM; in [8] it was 27.8 µM; in experiment [9], 3.43 µM; in experiment [10] it was 3.18 µM. Further, the TGI is 15.4 µM in [1]; 12 µM in experiment [2]; more than 100 µM in experiment [3]; 30 µM in [4]; 7.61 µM in [5]; 46.3 µM in experiment [6]. Further, the TGI in experiment [7] is 23.8 µM; in experiment [8], more than 100 µM; in experiment [9], 16.9 µM; in experiment [10] it was 71.1 µM.
Take `CC(=O)/C=C/C1=C(c2cc3ccccc3s2)c2ccccc2CC1`: the GI50 in experiment [1] was 28.9 µM; in [2], 19.4 µM; in experiment [3] it was 23 µM; in experiment [4], 33.6 µM; in [5] it was 19.4 µM; in experiment [6] it was 33 µM. For the same molecule, the GI50 in [7] is 27.1 µM; in [8] it was 29.9 µM; in [9], 13.6 µM; in experiment [10] it was 5.27 µM. For the same molecule, the TGI was 58.1 µM in [1]; 45 µM in [2]; 52.5 µM in [3]; more than 100 µM in experiment [4]; 45.5 µM in experiment [5]; more than 100 µM in [6]. The TGI in [7], in experiment [8], in [9] and in [10] was more than 100 µM in each case.
In the case of `CS(=O)(=O)CCNCc1ccc(-c2ccc3ncnc(Nc4ccc(OCc5cccc(C(F)(F)F)c5)cc4)c3c2)o1`, the GI50 in experiment [1] was 4.38 µM; in experiment [2], 5.15 µM; in experiment [3], 4.71 µM; in [4] it was 9.57 µM; in experiment [5], 7.38 µM; in experiment [6], 6.49 µM. Also, the GI50 in experiment [7] is 4.54 µM; in [8], 6.83 µM; in experiment [9], 4.87 µM; in experiment [10] it was 6.38 µM. Moreover, the TGI was 13.1 µM in experiment [1]; 11.2 µM in experiment [2]; 10.7 µM in [3]; more than 21.8 µM in [4]; more than 25 µM in experiment [5]; more than 25 µM in experiment [6]. Also, the TGI in experiment [7] was 9.82 µM; in [8], more than 15.5 µM; in experiment [9] it was more than 20.9 µM; in [10], more than 15 µM.

Values taken from PubChem BioAssay (NCI).
